Test results as given in patent US4072743A, “N^2 -arylsulfonyl-L-argininamides and the pharmaceutically acceptable salts thereof” (Mitsubishi Chemical Industries Limited, priority 1974, dated 1978).

Tests used:
mice = assay: Acute toxicity (LD50) by intraperitoneal administration in mice; type: in vivo; conditions: mice (male, 20 g)
Text: Representative LD50 values, for example, for N^2 -(5,6,7,8-tetrahydro-1-naphthylsulfonyl)-N-(2-methoxyethyl)glycine, N^2 -(7-methyl-2-naphthylsulfonyl)-N-butylglycine and N^2 -(6,7-dimethyl-1-naphthylsulfonyl)-N-(2-methoxyethyl)glycine are above 1,500 milligrams per kilogram, respectively.

thrombin = target: T1, thrombin (Bos taurus, UniProt P00735); assay: Fibrinogen coagulation time (thrombin-induced clotting of bovine fibrinogen); type: biochemical; conditions: thrombin 5 units/ml, borate saline buffer pH 7.4, 25° C, normal coagulation time 50-55 seconds prolonged to 100-110 seconds
T1 construct: purchased Mochida Pharmaceutical Co., Ltd
Description: The measurement of the fibrinogen coagulation time was conducted as follows:
Immediately after mixing, the reaction mixture was transferred from the ice bath to a bath maintained at 25° C. Coagulation times were taken as the period between the time of transference to the 25° C bath and the time of the first appearance of fibrin threads.
The term "concentration required to prolong the coagulation time by a factor of two" is the concentration of an active ingredient required to prolong the normal coagulation time 50-55 seconds to 100-110 seconds.

| Compound | Concentration required to prolong the coagulation time by a factor of two (thrombin) [µM] | acute toxicity value (LD50) (mice) |
| --- | --- | --- |
| CCCCNC(=O)[C@H](CCCNC(=N)N)NS(=O)(=O)c1cccc2c(N(C)C)cccc12 [N^2 -dansyl-N-butyl-L-argininamide, reference compound] | – | 75 milligrams per kilogram |
| CCCCN(C)C(=O)[C@H](CCCNC(=N)N)NS(=O)(=O)c1cccc2c(N(C)C)cccc12 [N^2 -dansyl-N-methyl-N-butyl-L-argininamide, reference compound] | – | 70 milligrams per kilogram |
| COCCN(CC(=O)O)C(=O)[C@H](CCCNC(=N)N)NS(=O)(=O)c1cccc2c1CCCC2 [Sample 3, N^2-(5,6,7,8-tetrahydro-1-naphthylsulfonyl)-L-arginyl-N-(2-methoxyethyl)glycine] | 10 | above 1,500 milligrams per kilogram |
| CCCCN(CC(=O)O)C(=O)[C@H](CCCNC(=N)N)NS(=O)(=O)c1ccc2ccc(C)cc2c1 [Sample 14, N^2-(7-methyl-2-naphthylsulfonyl)-L-arginyl-N-butylglycine] | 0.3 | above 1,500 milligrams per kilogram |
| Cc1ccc2ccc(S(=O)(=O)N[C@@H](CCCNC(=N)N)C(=O)N(CC(=O)O)CC3CCCCC3)cc2c1 [Sample 17, N^2-(7-methyl-2-naphthylsulfonyl)-L-arginyl-N-cyclohexylmethylglycine] | 14 | – |
| COCCN(CC(=O)O)C(=O)[C@H](CCCNC(=N)N)NS(=O)(=O)c1cccc2cc(C)c(C)cc12 [Sample 23, N^2-(6,7-dimethyl-1-naphthylsulfonyl)-L-arginyl-N-(2-methoxyethyl)glycine] | 10 | above 1,500 milligrams per kilogram |

Continued, in another order:

| Concentration required to prolong the coagulation time by a factor of two (thrombin) [µM] | Compound | acute toxicity value (LD50) (mice) |
| --- | --- | --- |
| 20 | CCCCN(CC(=O)O)C(=O)[C@H](CCCNC(=N)N)NS(=O)(=O)c1cccc2c1CCCC2 [Sample 1, N^2-(5,6,7,8-tetrahydro-1-naphthylsulfonyl)-L-arginyl-N-butylglycine] | – |
| 30 | N=C(N)NCCC[C@H](NS(=O)(=O)c1ccc2c(c1)CCCC2)C(=O)N(CC(=O)O)Cc1ccccc1 [Sample 4, N^2-(5,6,7,8-tetrahydro-2-naphthylsulfonyl)-L-arginyl-N-benzylglycine] | – |
| 0.2 | COCCN(CC(=O)O)C(=O)[C@H](CCCNC(=N)N)NS(=O)(=O)c1ccc2ccc(C)cc2c1 [Sample 15, N^2-(7-methyl-2-naphthylsulfonyl)-L-arginyl-N-(2-methoxyethyl)glycine] | – |
| 20 | COCCN(CC(=O)O)C(=O)[C@H](CCCNC(=N)N)NS(=O)(=O)c1cccc2ccc(C)cc12 [Sample 22, N^2-(7-methyl-1-naphthylsulfonyl)-L-arginyl-N-(2-methoxyethyl)glycine] | – |
| 4 | CCCCN(CC(=O)O)C(=O)[C@H](CCCNC(=N)N)NS(=O)(=O)c1cccc2c(N(C)C)cccc12 [Sample 24, N^2-(5-dimethylamino-1-naphthylsulfonyl)-L-arginyl-N-butylglycine] | – |
